Measured values from patent US20250163047A1, “HETEROCYCLIC COMPOUNDS, COMPOSITIONS THEREOF, AND METHODS OF TREATMENT THEREWITH” (BeiGene, Ltd., priority 2022, published 2025).
Like-named read-outs stand apart in the source and are kept apart here.

Assays:
[1] = molecular target: T1, Cbl-b (aa36-427) (Homo sapiens, UniProt Q13191); assay: Co-expressed Cbl-b with BirA biochemical assay (CBLB/E2-Ub binding, HTRF)
T1 construct: Cbl-b (aa36-427, in-house); made in house
Source text: (§1) The assay in the absence of a Cbl-b/Cbl inhibitor, where phosphorylation of Cbl-b/Cbl by the Src kinase allows UbcH5B-Ub to bind to Cbl-b/Cbl and brings the Bodipy-Fluorescein tagged ubiquitin in proximity to the streptavidin-terbium bound to the N-terminal biotinylated Avi-tagged Cbl-b/Cbl. […] The lack of a FRET signal indicates Cbl-b/Cbl is inhibited by the Cbl-b/Cbl inhibitor.

[2] = molecular target: T2, Cbl (aa49-434) (Homo sapiens, UniProt P22681); assay: Co-expressed Cbl with BirA biochemical assay (CBL/E2-Ub binding, HTRF); settings: 0.6 nM Cbl co-expressed with BirA, read-out: co-express CBL/E2-Ub-binding assay IC50
T2 construct: Cbl (aa49-434, in-house); made in house
T2 sequence (P22681 49-434): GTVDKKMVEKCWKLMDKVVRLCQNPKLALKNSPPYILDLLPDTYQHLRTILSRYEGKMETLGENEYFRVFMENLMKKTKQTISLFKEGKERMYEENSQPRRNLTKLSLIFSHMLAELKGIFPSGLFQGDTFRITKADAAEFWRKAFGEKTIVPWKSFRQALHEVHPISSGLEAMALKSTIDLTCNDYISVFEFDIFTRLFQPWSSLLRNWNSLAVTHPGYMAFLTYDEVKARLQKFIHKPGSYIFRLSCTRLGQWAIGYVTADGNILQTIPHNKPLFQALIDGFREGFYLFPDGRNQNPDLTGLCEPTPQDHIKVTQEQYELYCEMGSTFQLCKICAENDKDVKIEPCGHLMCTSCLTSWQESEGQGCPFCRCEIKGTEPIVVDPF
Source text: as §1

[3] = 0.6 nM Cbl-b co-expressed with BirA, HTRF, read-out: co-express CBLB/E2-Ub-binding assay IC50

T1 sequence (Q13191 36-427): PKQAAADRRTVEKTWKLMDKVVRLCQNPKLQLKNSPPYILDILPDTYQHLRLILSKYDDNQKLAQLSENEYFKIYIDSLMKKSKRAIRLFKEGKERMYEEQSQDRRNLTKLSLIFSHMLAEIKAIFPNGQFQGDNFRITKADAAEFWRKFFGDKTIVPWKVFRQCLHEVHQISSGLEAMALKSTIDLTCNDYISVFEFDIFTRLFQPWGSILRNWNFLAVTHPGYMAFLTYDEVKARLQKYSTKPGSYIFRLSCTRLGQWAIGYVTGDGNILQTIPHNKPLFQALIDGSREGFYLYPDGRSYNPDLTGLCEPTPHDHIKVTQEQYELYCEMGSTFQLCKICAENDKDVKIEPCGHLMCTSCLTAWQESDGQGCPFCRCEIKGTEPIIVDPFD

SMILES	IC50 [1, 3]	IC50 [2]	IC50 [1]
Cn1cnnc1[C@]1(c2cncc(NC(=O)c3cc(CNC4(C)CCC4)c4[nH]cc(Cl)c4n3)c2)C[C@H](C)C1 [Compound B52, 3-chloro-N-(5-((1s, 3s)-3-methyl-1-(4-methyl-4H-1,2,4-triazol-3-yl)cyclobutyl)pyridin-3-yl)-7-(((1-methylcyclobutyl)amino)methyl)-1H-pyrrolo[3,2-b]pyridine-5-carboxamide]	5 nM	19 nM	
Cn1cnnc1[C@]1(c2cncc(NC(=O)c3cc(CNCC4CCC4)c4[nH]cc(Cl)c4n3)c2)C[C@H](C)C1 [Compound B53, 3-chloro-7-(((cyclobutylmethyl)amino)methyl)-N-(5-((1s, 3s)-3-methyl-1-(4-methyl-4H-1,2,4-triazol-3-yl)cyclobutyl)pyridin-3-yl)-1H-pyrrolo[3,2-b]pyridine-5-carboxamide]	3.1 nM	9.7 nM	
Cn1cnnc1[C@]1(c2cccc(NC(=O)c3cc(CNC4(C)CC4)c4[nH]cc(F)c4n3)c2)C[C@H](CC#N)C1 [Compound B54, N-(3-((1s, 3s)-3-(cyanomethyl)-1-(4-methyl-4H-1,2,4-triazol-3-yl)cyclobutyl)phenyl)-3-fluoro-7-(((1-methylcyclopropyl)amino)methyl)-1H-pyrrolo[3,2-b]pyridine-5-carboxamide]	1.2 nM	12 nM	
CC(C)CNCc1cc(C(=O)Nc2cncc([C@]3(c4nncn4C)C[C@@H](C)C3)c2)nc2c(Cl)c[nH]c12 [Compound B55, 3-chloro-7-((isobutylamino)methyl)-N-(5-((1s, 3s)-3-methyl-1-(4-methyl-4H-1,2,4-triazol-3-yl)cyclobutyl)pyridin-3-yl)-1H-pyrrolo[3,2-b]pyridine-5-carboxamide]		14 nM	1.6 nM
Cn1ccc2nc(C(=O)Nc3cccc([C@]4(c5nncn5C)C[C@@H](CC#N)C4)c3)cc(CNC3(C)CCC3)c21 [Compound B56, N-(3-((1s, 3s)-3-(cyanomethyl)-1-(4-methyl-4H-1,2,4-triazol-3-yl)cyclobutyl)phenyl)-1-methyl-7-(((1-methylcyclobutyl)amino)methyl)-1H-pyrrolo[3,2-b]pyridine-5-carboxamide]	1.4 nM	32 nM	
Cn1ccc2nc(C(=O)Nc3cccc([C@]4(c5nncn5C)C[C@@H](CC#N)C4)c3)cc(CNC3(C)CC3)c21 [Compound B57, N-(3-((1s, 3s)-3-(cyanomethyl)-1-(4-methyl-4H-1,2,4-triazol-3-yl)cyclobutyl)phenyl)-1-methyl-7-(((1-methylcyclopropyl)amino)methyl)-1H-pyrrolo[3,2-b]pyridine-5-carboxamide]	1.3 nM	15 nM	
C[C@H]1CCCN(Cc2cc(C(=O)Nc3cccc(C4(c5nncn5C)CC(CC#N)C4)c3)nc3c2CCC3(C)C)C1 (stereo partly drawn) [Compound C7, (S)—N-(3-(3-(cyanomethyl)-1-(4-methyl-4H-1,2,4-triazol-3-yl)cyclobutyl)phenyl)-7,7-dimethyl-4-((3-methylpiperidin-1-yl)methyl)-6,7-dihydro-5H-cyclopenta[b]pyridine-2-carboxamide]	2.56 nM	19.7 nM	
C[C@H]1CCCN(Cc2cc(C(=O)Nc3cccc([C@]4(Cc5nncn5C)C[C@@H](C#N)C4)c3)nc3c2CCC3(C)C)C1 [Compound C8, N-(3-((1r,3S)-3-cyano-1-((4-methyl-4H-1,2,4-triazol-3-yl)methyl)cyclobutyl)phenyl)-7,7-dimethyl-4-(((S)-3-methylpiperidin-1-yl)methyl)-6,7-dihydro-5H-cyclopenta[b]pyridine-2-carboxamide]	1 nM	1.8 nM	
C[C@H]1CCCN(Cc2cc(C(=O)Nc3cccc([C@]4(c5nncn5C)C[C@@H](CC#N)C4)c3)nc3c2CCC3(C)C)C1 [Compound C9, N-(3-((1s,3R)-3-(cyanomethyl)-1-(4-methyl-4H-1,2,4-triazol-3-yl)cyclobutyl)phenyl)-7,7-dimethyl-4-(((S)-3-methylpiperidin-1-yl)methyl)-6,7-dihydro-5H-cyclopenta[b]pyridine-2-carboxamide]	0.9 nM	15.7 nM	
